Results reported in the NIST ThermoML archive (doi:10.1021/je5010214).
± gives the expanded uncertainty stated by the source.

Settings: Liquid, Vibrating tube method

Structure (SMILES): CC(C)CO [2-methyl-1-propanol]
- mass density (283.15 K, 89.4 kPa): 809.726 ± 0.81 kg/m3
- mass density (283.15 K, 478.2 kPa): 810.123 ± 0.81 kg/m3
- mass density (283.15 K, 489.9 kPa): 810.142 ± 0.81 kg/m3
- mass density (283.15 K, 930.2 kPa): 810.437 ± 0.81 kg/m3
- mass density (283.15 K, 1027.3 kPa): 810.557 ± 0.81 kg/m3
- mass density (283.15 K, 2172.1 kPa): 811.348 ± 0.81 kg/m3
- mass density (283.15 K, 2992.9 kPa): 811.865 ± 0.81 kg/m3
- mass density (283.15 K, 4993.8 kPa): 813.245 ± 0.81 kg/m3
- mass density (283.15 K, 6906.9 kPa): 814.669 ± 0.81 kg/m3
- mass density (283.15 K, 8995.7 kPa): 816.167 ± 0.81 kg/m3
- mass density (283.15 K, 10003 kPa): 816.885 ± 0.82 kg/m3
- mass density (283.15 K, 12183 kPa): 818.287 ± 0.82 kg/m3
- mass density (283.15 K, 14910 kPa): 820.439 ± 0.82 kg/m3
- mass density (283.15 K, 17915 kPa): 822.056 ± 0.83 kg/m3
- mass density (283.15 K, 20110 kPa): 823.875 ± 0.83 kg/m3
- mass density (283.15 K, 22168 kPa): 825.177 ± 0.83 kg/m3
- mass density (283.15 K, 24886 kPa): 826.625 ± 0.84 kg/m3
- mass density (283.15 K, 27713 kPa): 828.29 ± 0.84 kg/m3
- mass density (283.15 K, 30148 kPa): 829.717 ± 0.85 kg/m3
- mass density (283.15 K, 32117 kPa): 830.745 ± 0.85 kg/m3
- mass density (283.15 K, 33086 kPa): 831.522 ± 0.85 kg/m3
- mass density (283.15 K, 33288 kPa): 831.507 ± 0.85 kg/m3
- mass density (283.15 K, 34077 kPa): 832.073 ± 0.85 kg/m3
- mass density (283.15 K, 35107 kPa): 832.469 ± 0.85 kg/m3
- mass density (283.15 K, 38030 kPa): 834.322 ± 0.86 kg/m3
- mass density (283.15 K, 44591 kPa): 837.752 ± 0.87 kg/m3
- mass density (283.15 K, 54994 kPa): 843.308 ± 0.89 kg/m3
- mass density (283.15 K, 57756 kPa): 844.723 ± 0.9 kg/m3
- mass density (283.15 K, 59886 kPa): 845.575 ± 0.9 kg/m3
- mass density (283.15 K, 61822 kPa): 846.524 ± 0.91 kg/m3
- mass density (283.15 K, 64894 kPa): 848.158 ± 0.91 kg/m3
- mass density (283.16 K, 289.9 kPa): 810.056 ± 0.81 kg/m3
- mass density (283.16 K, 39967 kPa): 835.34 ± 0.86 kg/m3
- mass density (283.16 K, 41406 kPa): 835.909 ± 0.87 kg/m3
- mass density (283.16 K, 48034 kPa): 839.7 ± 0.88 kg/m3
- mass density (283.16 K, 49830 kPa): 840.462 ± 0.88 kg/m3
- mass density (283.16 K, 51952 kPa): 841.796 ± 0.89 kg/m3
- mass density (283.16 K, 66072 kPa): 848.566 ± 0.91 kg/m3
- mass density (288.15 K, 85.3 kPa): 806.159 ± 0.81 kg/m3
- mass density (288.15 K, 351.1 kPa): 806.381 ± 0.81 kg/m3
- mass density (288.15 K, 718.6 kPa): 806.519 ± 0.81 kg/m3
- mass density (288.15 K, 928.3 kPa): 806.632 ± 0.81 kg/m3
- mass density (288.15 K, 1132.3 kPa): 807.006 ± 0.81 kg/m3
- mass density (288.15 K, 1931.6 kPa): 807.42 ± 0.81 kg/m3
- mass density (288.15 K, 3433.9 kPa): 808.429 ± 0.81 kg/m3
- mass density (288.15 K, 5023.9 kPa): 809.62 ± 0.81 kg/m3
- mass density (288.15 K, 6893.9 kPa): 810.983 ± 0.81 kg/m3
- mass density (288.15 K, 8406.4 kPa): 812.175 ± 0.81 kg/m3
- mass density (288.15 K, 12498 kPa): 814.345 ± 0.82 kg/m3
- mass density (288.15 K, 13061 kPa): 815.035 ± 0.82 kg/m3
- mass density (288.15 K, 15159 kPa): 815.414 ± 0.82 kg/m3
- mass density (288.15 K, 16159 kPa): 816.818 ± 0.82 kg/m3
- mass density (288.15 K, 17078 kPa): 817.715 ± 0.83 kg/m3
- mass density (288.15 K, 19062 kPa): 818.283 ± 0.83 kg/m3
- mass density (288.15 K, 20120 kPa): 819.399 ± 0.83 kg/m3
- mass density (288.15 K, 21983 kPa): 820.3 ± 0.83 kg/m3
- mass density (288.15 K, 22948 kPa): 821.319 ± 0.84 kg/m3
- mass density (288.15 K, 24955 kPa): 821.837 ± 0.84 kg/m3
- mass density (288.15 K, 31002 kPa): 825.774 ± 0.85 kg/m3
- mass density (288.15 K, 36056 kPa): 828.477 ± 0.86 kg/m3
- mass density (288.15 K, 38602 kPa): 829.859 ± 0.86 kg/m3
- mass density (288.15 K, 40698 kPa): 831.363 ± 0.87 kg/m3
- mass density (288.15 K, 42984 kPa): 832.313 ± 0.87 kg/m3
- mass density (288.15 K, 44991 kPa): 833.694 ± 0.88 kg/m3
- mass density (288.15 K, 46862 kPa): 834.848 ± 0.88 kg/m3
- mass density (288.15 K, 49740 kPa): 835.692 ± 0.89 kg/m3
- mass density (288.15 K, 53748 kPa): 837.321 ± 0.9 kg/m3
- mass density (288.15 K, 55203 kPa): 839.369 ± 0.9 kg/m3
- mass density (288.15 K, 60810 kPa): 841.135 ± 0.91 kg/m3
- mass density (288.15 K, 65611 kPa): 844.144 ± 0.92 kg/m3
- mass density (288.16 K, 549.3 kPa): 806.494 ± 0.81 kg/m3
- mass density (288.16 K, 9959.1 kPa): 813.184 ± 0.82 kg/m3
- mass density (288.16 K, 27092 kPa): 823.174 ± 0.84 kg/m3
- mass density (288.16 K, 29078 kPa): 824.509 ± 0.85 kg/m3
- mass density (288.16 K, 33729 kPa): 826.936 ± 0.85 kg/m3
- mass density (288.16 K, 57016 kPa): 840.129 ± 0.9 kg/m3
- mass density (288.16 K, 62338 kPa): 843.086 ± 0.91 kg/m3
- mass density (293.15 K, 63.4 kPa): 802.054 ± 0.81 kg/m3
- mass density (293.15 K, 194.5 kPa): 802.316 ± 0.81 kg/m3
- mass density (293.15 K, 662.6 kPa): 802.599 ± 0.81 kg/m3
